Reference: US6291657A (priority 1993, dated 2001)

Key:
β-glucosidases = conditions: Legler & Pohl, 1986; cited from earlier work
α-glucosidase I and II = test: Inhibition of purified processing α-glucosidase I and II; type: biochemical; conditions: mixture of purified α-glucosidases I and II
Method: Porcine liver α-glucosidase I and rat liver α-glucosidase II were purified to homogeneity and assayed by conventional procedure using a [^14 C]-glucose labelled Glc3 Man9 GlcNAc2 substrate as previously described by Karlsson et al., J. Biol. Chem. 268, 570-576 (1993).
Enzymes were assayed according to procedure described hereinbefore using
The data from FIG. 8 were […]

[1] = test system: glycolipid and phospholipid species in HL-60 cells; test: 2D-TLC analysis of total HL-60 lipids labelled with [14C]-palmitic acid; type: cell-based, human; conditions: 2D-TLC (FIG. 2)
Method: 2D-TLC separation was made of total HL-60 lipids labelled with [^14 C]-palmitic acid. Cells were treated with either 0.5 mM NB-DNJ or NB-DGJ or untreated (UT). Lipids were assigned as follows (untreated cells, lefthand panel, FIG. 2A): 1, gangliosides; 2, lysophospatidylcholine; 3, ceramide phosphorylcholine; 4, ceramide phosphorylethanolamine; 5, phospatidylcholine; 6, phosphatidylinositol; 7, phosphatidylethanolamine; 8, phosphatidylglycerol; 9, diglycosylceramide; 10, monoglycosylceramide; 11, cholesterol/fatty acids/neutral lipids; N and N* are unknowns; and 0 is the sample origin. Following NB-DNJ and NB-DGJ treatment (middle and righthand panels, FIGS. 2B and 2C, respectively) species 1 (gangliosides);9 (diglycosylceramide); 10 (monoglycosylceramide) and N* (unknown) were absent. The radiolabelled lipids were visualized by autoradiography.
HL-60 cells were cultured by conventional procedure as previously described by Platt et al., Eur. J. Biochem. 208, 187-193 (1992). HL-60 cells at 5×10^4 cells/ml were cultured in the presence or absence of imino sugars for 24 hr. For labelling, the two dimensional thin layer chromatography (2D-TLC) conventional method of Butters and Hughes was followed [In Vitro 17, 831-838 (1981)]. Briefly, [^14 C]-palmitic acid (56.8 mCi/mmol, ICN/Flow) was added as a sonicated preparation in foetal calf serum (FCS, Techgen, London, U.K., 0.5 μCi/ml) and the cells cultured for a further 3 days maintaining the imino sugars in the medium. The cells were harvested, washed three times with phosphate buffered saline (PBS), extracted in 1 ml chloroform:methanol (2:1 v/v) and separated by 1 dimensional TLC, loading equal counts (1D-TLC, chloroform:methanol:water (65:25:4)). For two dimensional separations the one dimensional separation was performed as described above, the plate dried overnight under vacuum and separated in the second dimension using a solvent of tetrahydrofuran: dimethoxymethane:methanol:water (10:6:4:1). Plates were air dried and exposed to Hyperfilm-MP high performance autoradiography film (Amersham).

[2] = biological target: UDP-glucose:N-acylsphingosine glucosyltransferase; test: Inhibition of UDP-glucose:N-acylsphingosine glucosyltransferase; type: biochemical, rat brain, mouse macrophage (WEHI-3B); conditions: rat brain or mouse macrophage homogenates; read-out: IC50
[3] = test system: glycolipid biosynthesis in HL-60 cells; test: Inhibition of glycolipid biosynthesis in HL-60 cells, [14C]-palmitic acid labelling, 1D-TLC; type: cell-based, human;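 note: cells cultured 24 h with or without test compound, total cellular lipids resolved by one-dimensional TLC and detected by autoradiography, inhibition shown as missing Glc-Cer and gangliosides versus untreated cells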
α-glucosidase I = conditions: cell culture systems, Karlsson et al.; cited from earlier work
[4] = test system: N-linked oligosaccharide processing of gp120 in CHO cells (α-glucosidases I and II); test: Endo H sensitivity of gp120 expressed in CHO cells (N-linked oligosaccharide processing); type: cell-based, Chinese hamster; conditions: 0.5 mM or 5 mM (FIG. 7)
Method: The arrows indicate the molecular weight of the untreated gp120 (120 kDa) and post endo H digestion (60 kDa). An additional band of low molecular weight (approximately 60 kDa) was present in some lanes and is a non-specific protein precipitated by the solid phase matrix.
The culture of CHO cells expressing soluble recombinant gp120 (from Dr. P. Stevens, MRC AIDS Directed Programme Reagent Project) and the radiolabelling of these cells was carried out by conventional procedure as described by Karlsson et al., J. Biol. Chem. 268, 570-576 (1993). Briefly, CHO cells were harvested mechanically, washed three times with phosphate buffered saline, 0.1M pH 7.2 (PBS) and resuspended in methionine- and cysteine-free RPMI-1640 medium (ICN-Flow Laboratories, High Wycombe, Bucks, U.K.) supplemented with 1% dialysed FCS. Cells (10^7 /ml) were preincubated in the presence or absence of NB-DNJ or NB-DGJ for 1 hr prior to the addition of 100 μCi/ml Tran^35 S-label (ICN-Flow) for 4 hr. The supernatants were collected and concentrated tenfold using a 30 kDa cut-off membrane (Amicon, Danvers, Mass., U.S.A.).
Immunoprecipitations were performed by conventional procedure as described by Karlsson supra. Supernatants were incubated with the mAb ABT 1001 monoclonal antibody (American Biotechnologies Inc., Cambridge, Mass., U.S.A.) at 0.5 μg/100 μl of supernatant for 30 min. at room temperature followed by sheep anti-mouse IgG1-coated magnetic beads (Dynal Ltd., Wirral, Merseyside, U.K., 1.2×10^7 beads per sample) for 1 hr. at 4° C. The beads were washed three times with 2% TRITON® X-100 in PBS and three times with PBS. Gp120 was eluted in […] reducing SDS-PAGE sample buffer with heating (95° C., 5 min.). Each sample was divided into two equal aliquots and 25 μl of dH2 O added to give a final volume of 50 μl. To one half of each sample 2 μl of endoglycosidase H (endo H, 1 unit/ml, Boehringer Mannheim Ltd., Lewes, Sussex, U.K.) was added and the other half left untreated. […]

HL-60 cells = test: Cytotoxicity in the dose range tested; type: cell-based, human
[5] = test system: oligosaccharide biosynthesis in HL-60 cells; test: Glycopeptide analysis by Con A-SEPHAROSE chromatography, HL-60 cells; type: cell-based, human
[6] = test system: oligosaccharide biosynthesis in BW5147 cells; test: Glycopeptide analysis by Con A-SEPHAROSE chromatography, BW5147 cells; type: cell-based, murine
[7] = test system: cholera toxin binding sites on H9 cells; type: cell-based, human; conditions: h9 cells, 4320 min
[8] = test system: N-linked oligosaccharide processing of gp120 in CHO cells (α-glucosidases I and II); conditions: previously tested [Karlsson et al.]; cited from earlier work
WEHI-3B cell lysosomes = test: Transmission electron microscopy of lysosomes of CBE treated WEHI-3B cells; type: cell-based, murine; conditions: transmission electron microscopy (FIG. 6)
[9] = test system: glucocerebrosidase in WEHI-3B cells; conditions: WEHI-3B cells in the absence of CBE; cited from earlier work

Structure (SMILES): CCCCCCCN1C[C@H](O)[C@@H](O)[C@@H](O)[C@H]1CO [N-heptyldeoxygalactonojirimycin]
- affinity towards certain β-glucosidases (β-glucosidases): modest increase in the affinity

Structure (SMILES): CCCCN1C[C@H](O)[C@@H](O)[C@H](O)[C@H]1CO [NB-DNJ, N-Butyldeoxynojirimycin]
- IC50 (α-glucosidase I and II): 0.36 µM
- gangliosides, unknown lipid (N*), mono and dihexaside species following treatment ([1]; HL-60, 0.5 mM): absent
- depletion of glycolipid species ([1]; HL-60, 500 μM): total depletion of glycolipid species
- IC50 [2]: 2.95 µM
- lipid species whose biosynthesis was inhibited ([3]; HL-60, 500 μM, 1D-TLC): inhibited the biosynthesis of Glc-Cer, gangliosides and an unknown lipid species
- inhibition of glycolipid biosynthesis ([3]; HL-60, 500 μM, 1D-TLC (FIG. 1)): specifically inhibited glycolipid biosynthesis
- effect of N-alkyl chain length on inhibition of glycolipid biosynthesis (loss of detectable Glc-Cer) ([3]; HL-60, 0.5 mM, 1D-TLC (FIG. 4)): completely inhibited glycolipid biosynthesis
- minimal effective concentration ([3]; Homo sapiens, HL-60, 1D-TLC (FIG. 3), partial inhibition, read-out: concentrations as low as which partial inhibition occurred): 0.5 to 5 µM
- concentration for α-glucosidase I inhibition (α-glucosidase I): 0.5 mM
- endo H sensitivity of gp120 N-linked glycans [4]: fully endo H sensitive
- cytotoxicity (HL-60 cells): non-cytotoxic
- Total 3H-mannose recovered ([5]; HL-60): 913095 cpm
- Bi-antennary ([5]; HL-60, percentage of radiolabelled glycopeptides eluted with 10 mM methylglucoside): 20.0%
- Oligo-mannose & hybrid ([5]; HL-60, percentage of radiolabelled glycopeptides eluted with 500 mM methylmannoside): 60.5%
- Tetra- & Tri-antennary ([5]; HL-60, percentage of radiolabelled glycopeptides non-bound): 19.5%
- glycopeptide profile by Con A-SEPHAROSE chromatography ([5]; HL-60 and BW5147): changes the affinity of glycopeptides
- proportion of unbound glycans (tetra- and tri-antennary species) ([5]; HL-60 and BW5147): decreases
- proportion of high mannose/hybrid glycans tightly bound to Con A-SEPHAROSE ([5]; HL-60 and BW5147, eluted with 500 mM methylmannoside): increase
- Total 3H-mannose recovered [6]: 686026 cpm
- Bi-antennary ([6]; percentage of radiolabelled glycopeptides eluted with 10 mM methylglucoside): 4.9%
- Oligo-mannose & hybrid ([6]; percentage of radiolabelled glycopeptides eluted with 500 mM methylmannoside): 68.3%
- Tetra- & Tri-antennary ([6]; percentage of radiolabelled glycopeptides non-bound): 26.8%
- reduction in cholera toxin binding [7]: approximately 90%
- endo H sensitivity of high mannose oligosaccharides on gp120 [8]: fully sensitive to endo H
- glycolipid accumulation in lysosomes (WEHI-3B cell lysosomes): prevented the glycolipid accumulation
- Glc-Cer accumulation [9]: accumulated Glc-Cer
